Assay results from ChEMBL document CHEMBL1944599, “From libraries to candidate: the discovery of new ultra long-acting dibasic β₂-adrenoceptor agonists” (Bioorg Med Chem Lett, 2012).
Activity calls are given as the source filed them. The rule behind the calls is not given here.

How the values were obtained:
Cavia porcellus [1] = assay: Bronchoprotective activity in it dosed guinea pig assessed as inhibition of histamine-induced constriction
Hepatocyte = conditions: rat, hepatocytes
Description: Drug metabolism in rat hepatocytes

[2] = biological target: T1, Alpha-1D adrenergic receptor (Homo sapiens) (UniProt P25100); assay: […] to Alpha-1D adrenoceptor expressed in HEK cells by calcium flux assay relative to control; format: cell-based; conditions: HEK293
T1 sequence (whole entry): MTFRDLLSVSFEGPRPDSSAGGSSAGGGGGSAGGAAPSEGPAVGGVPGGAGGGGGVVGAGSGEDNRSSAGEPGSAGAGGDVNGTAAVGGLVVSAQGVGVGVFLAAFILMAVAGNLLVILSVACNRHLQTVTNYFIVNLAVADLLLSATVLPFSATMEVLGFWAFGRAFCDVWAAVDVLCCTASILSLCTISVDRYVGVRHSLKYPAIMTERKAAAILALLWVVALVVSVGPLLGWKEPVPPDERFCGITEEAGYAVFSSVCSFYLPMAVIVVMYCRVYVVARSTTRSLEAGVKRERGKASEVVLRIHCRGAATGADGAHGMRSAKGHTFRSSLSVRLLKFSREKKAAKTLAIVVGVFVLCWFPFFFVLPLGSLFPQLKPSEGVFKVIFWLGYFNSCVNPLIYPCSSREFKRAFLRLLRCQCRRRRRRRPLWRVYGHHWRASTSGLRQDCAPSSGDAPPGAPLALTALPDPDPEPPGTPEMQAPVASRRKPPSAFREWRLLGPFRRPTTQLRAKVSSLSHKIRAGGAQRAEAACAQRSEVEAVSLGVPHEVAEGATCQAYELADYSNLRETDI

D(2) dopamine receptor [3] = biological target: T2, D(2) dopamine receptor (Homo sapiens, UniProt P14416); assay: […] to dopamine D2 receptor expressed in HEK cells by GTPgammaS binding assay relative to control; format: cell-based; conditions: HEK293
T2 sequence (P14416 whole entry): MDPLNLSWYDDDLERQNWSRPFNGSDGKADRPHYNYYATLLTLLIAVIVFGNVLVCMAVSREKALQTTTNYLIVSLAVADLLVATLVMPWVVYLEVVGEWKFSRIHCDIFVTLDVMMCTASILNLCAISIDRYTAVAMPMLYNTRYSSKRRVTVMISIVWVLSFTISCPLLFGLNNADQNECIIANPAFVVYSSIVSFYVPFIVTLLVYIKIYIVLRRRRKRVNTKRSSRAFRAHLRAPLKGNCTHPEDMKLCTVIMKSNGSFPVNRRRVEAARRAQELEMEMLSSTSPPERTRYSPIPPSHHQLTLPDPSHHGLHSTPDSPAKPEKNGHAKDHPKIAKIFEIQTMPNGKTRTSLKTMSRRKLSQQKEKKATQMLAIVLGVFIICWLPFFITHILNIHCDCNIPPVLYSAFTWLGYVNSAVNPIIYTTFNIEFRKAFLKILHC

[4] = biological target: Beta-2 adrenergic receptor (Cavia porcellus) (UniProt Q8K4Z4); assay: Agonist activity at beta2 adrenoceptor in guinea pig trachea assessed as reduction in methacholine-induced contraction relative to untreated control; format: functional, tissue-based
Sequence of Beta-2 adrenergic receptor (Cavia porcellus) (Q8K4Z4 whole entry, looked up): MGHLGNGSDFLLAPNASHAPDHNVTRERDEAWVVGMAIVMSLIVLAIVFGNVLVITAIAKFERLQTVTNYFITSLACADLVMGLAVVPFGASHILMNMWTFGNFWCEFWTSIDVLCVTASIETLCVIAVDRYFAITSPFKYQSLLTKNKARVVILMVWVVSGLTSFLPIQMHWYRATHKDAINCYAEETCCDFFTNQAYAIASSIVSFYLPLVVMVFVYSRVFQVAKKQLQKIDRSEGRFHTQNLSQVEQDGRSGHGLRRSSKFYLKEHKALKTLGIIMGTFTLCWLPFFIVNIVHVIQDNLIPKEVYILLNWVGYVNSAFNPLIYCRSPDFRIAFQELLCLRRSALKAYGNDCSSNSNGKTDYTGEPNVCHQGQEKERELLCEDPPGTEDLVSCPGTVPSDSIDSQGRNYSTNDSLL

Cavia porcellus [5] = assay: Bronchoprotective activity in histamine-induced bronchoconstriction guinea pig model at 7 ug/kg, it co-administered with beta2 adrenoceptor antagonist propranolol; format: functional, organism-based
[6] = biological target: T3, Beta-2 adrenergic receptor (Homo sapiens, UniProt P07550); assay: Agonist activity at human beta2 adrenoceptor expressed in H292 cells assessed as increase in cAMP accumulation after 60 mins by spectrophotometry; format: functional, cell-based
T3 sequence (P07550 whole entry): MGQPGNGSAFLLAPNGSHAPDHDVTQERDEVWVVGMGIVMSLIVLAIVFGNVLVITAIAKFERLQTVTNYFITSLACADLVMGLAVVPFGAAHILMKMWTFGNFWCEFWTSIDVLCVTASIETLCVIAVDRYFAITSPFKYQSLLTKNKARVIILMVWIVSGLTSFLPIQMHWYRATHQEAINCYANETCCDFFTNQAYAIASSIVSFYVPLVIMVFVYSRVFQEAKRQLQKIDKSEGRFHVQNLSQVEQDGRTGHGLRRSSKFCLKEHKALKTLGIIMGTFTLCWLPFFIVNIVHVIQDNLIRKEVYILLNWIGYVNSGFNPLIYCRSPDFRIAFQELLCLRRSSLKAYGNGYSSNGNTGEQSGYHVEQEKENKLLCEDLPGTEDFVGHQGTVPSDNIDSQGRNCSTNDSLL

[7] = biological target: T4, Beta-1 adrenergic receptor (Homo sapiens, UniProt P08588); assay: Displacement of radiolabeled iodocyanopindolol from beta1 adrenoceptor
T4 sequence (P08588 whole entry): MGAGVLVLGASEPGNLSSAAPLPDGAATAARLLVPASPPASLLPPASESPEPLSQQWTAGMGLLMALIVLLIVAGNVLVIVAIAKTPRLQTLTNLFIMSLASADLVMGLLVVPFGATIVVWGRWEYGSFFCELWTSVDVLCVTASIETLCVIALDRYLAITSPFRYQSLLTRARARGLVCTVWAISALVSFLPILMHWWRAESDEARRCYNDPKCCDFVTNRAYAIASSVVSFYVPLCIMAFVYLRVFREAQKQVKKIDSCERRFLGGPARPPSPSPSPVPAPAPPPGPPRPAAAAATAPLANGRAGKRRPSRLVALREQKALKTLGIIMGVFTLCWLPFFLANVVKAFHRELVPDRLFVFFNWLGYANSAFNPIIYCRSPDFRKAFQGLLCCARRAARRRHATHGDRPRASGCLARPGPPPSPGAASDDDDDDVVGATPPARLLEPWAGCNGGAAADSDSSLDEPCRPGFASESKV

[8] = Clearance in iv dosed rat; conditions: in vivo
D(2) dopamine receptor [9] = biological target: T2, D(2) dopamine receptor; assay: Displacement of radiolabeled spiperone from dopamine D2 receptor
[10] = biological target: Beta-2 adrenergic receptor (Cavia porcellus, UniProt Q8K4Z4); assay: Agonist activity at beta2 adrenoceptor in guinea pig trachea assessed as reduction in methacholine-induced contraction; format: functional, tissue-based
Sequence of Beta-2 adrenergic receptor (Cavia porcellus, UniProt Q8K4Z4) (Q8K4Z4 whole entry): as the sequence (Q8K4Z4 whole entry, looked up) above

physchem = conditions: 1-octanol/aqueous buffer, pH 7.4
[11] = Apparent volume of distribution during terminal phase in iv dosed rat; format: ADME, organism-based; conditions: in vivo, read-out: Vz
[12] = biological target: T5, Alpha-1D adrenergic receptor (Homo sapiens, UniProt P25100); assay: Displacement of radiolabeled Prazosin from alpha1D adrenoceptor
T5 sequence (P25100 whole entry): T1 sequence (whole entry)

in vivo = conditions: rat, iv
Description: Terminal half life in iv dosed rat

[13] = biological target: T3, Beta-2 adrenergic receptor; assay: Displacement of radiolabeled iodocyanopindolol from recombinant beta2 adrenoceptor
[14] = octanol/water, pH 7.4
[15] = biological target: T4, Beta-1 adrenergic receptor; assay: Binding affinity to beta1 adrenoceptor
Cytochrome P450 2D6 = Cytochrome P450 2D6 (Homo sapiens, UniProt P10635); assay: Inhibition of CYP2D6; format: ADME
Sequence of Cytochrome P450 2D6 (P10635 whole entry): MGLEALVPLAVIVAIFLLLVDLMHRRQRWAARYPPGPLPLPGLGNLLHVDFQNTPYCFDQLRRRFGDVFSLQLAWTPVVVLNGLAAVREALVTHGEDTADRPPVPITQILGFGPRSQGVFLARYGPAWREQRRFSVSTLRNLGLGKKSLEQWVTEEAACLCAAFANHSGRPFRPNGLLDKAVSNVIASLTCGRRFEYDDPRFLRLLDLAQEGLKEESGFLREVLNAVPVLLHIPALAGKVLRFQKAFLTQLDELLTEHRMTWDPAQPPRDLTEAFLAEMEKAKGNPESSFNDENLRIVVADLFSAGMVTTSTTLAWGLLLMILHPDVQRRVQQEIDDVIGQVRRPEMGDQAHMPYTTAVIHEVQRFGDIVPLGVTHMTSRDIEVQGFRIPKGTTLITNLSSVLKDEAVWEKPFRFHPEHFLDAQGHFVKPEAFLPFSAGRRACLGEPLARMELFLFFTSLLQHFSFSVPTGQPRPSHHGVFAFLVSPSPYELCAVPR

[16] = biological target: T6, Voltage-gated inwardly rectifying potassium channel KCNH2 (Homo sapiens, UniProt Q12809); assay: Inhibition of human ERG
T6 sequence (Q12809 whole entry): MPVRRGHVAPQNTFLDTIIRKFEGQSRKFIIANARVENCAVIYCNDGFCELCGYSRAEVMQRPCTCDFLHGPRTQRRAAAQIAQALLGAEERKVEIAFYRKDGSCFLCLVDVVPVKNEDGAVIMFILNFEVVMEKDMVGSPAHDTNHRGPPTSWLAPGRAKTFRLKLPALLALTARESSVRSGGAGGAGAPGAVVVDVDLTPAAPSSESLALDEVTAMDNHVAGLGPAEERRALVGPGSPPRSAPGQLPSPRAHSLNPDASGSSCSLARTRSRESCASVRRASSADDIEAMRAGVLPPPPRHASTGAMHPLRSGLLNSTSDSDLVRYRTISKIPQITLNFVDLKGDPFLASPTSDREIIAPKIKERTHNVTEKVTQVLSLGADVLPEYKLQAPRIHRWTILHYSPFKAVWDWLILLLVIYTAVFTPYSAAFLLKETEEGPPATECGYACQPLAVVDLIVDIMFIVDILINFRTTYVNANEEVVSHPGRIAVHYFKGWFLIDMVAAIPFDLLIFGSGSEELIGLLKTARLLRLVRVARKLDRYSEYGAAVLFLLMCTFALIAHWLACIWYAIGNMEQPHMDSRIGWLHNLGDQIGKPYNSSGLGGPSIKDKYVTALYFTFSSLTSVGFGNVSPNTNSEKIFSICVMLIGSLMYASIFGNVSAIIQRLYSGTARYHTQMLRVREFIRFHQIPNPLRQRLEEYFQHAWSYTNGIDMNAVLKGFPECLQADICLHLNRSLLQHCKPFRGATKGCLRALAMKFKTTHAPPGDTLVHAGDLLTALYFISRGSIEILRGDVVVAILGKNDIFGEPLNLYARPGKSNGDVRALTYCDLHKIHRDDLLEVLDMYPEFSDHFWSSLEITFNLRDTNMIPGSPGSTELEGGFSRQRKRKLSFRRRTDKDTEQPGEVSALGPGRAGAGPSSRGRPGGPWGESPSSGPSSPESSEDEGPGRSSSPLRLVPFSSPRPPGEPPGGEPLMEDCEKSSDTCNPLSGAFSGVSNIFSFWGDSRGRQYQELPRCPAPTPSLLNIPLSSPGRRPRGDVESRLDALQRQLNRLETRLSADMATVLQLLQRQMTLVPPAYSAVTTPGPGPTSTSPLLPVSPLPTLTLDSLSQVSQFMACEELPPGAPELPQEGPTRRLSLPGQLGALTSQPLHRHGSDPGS

Cytochrome P450 3A4 = Cytochrome P450 3A4 (Homo sapiens, UniProt P08684); assay: Inhibition of CYP3A4; format: ADME
Sequence of Cytochrome P450 3A4 (P08684 whole entry): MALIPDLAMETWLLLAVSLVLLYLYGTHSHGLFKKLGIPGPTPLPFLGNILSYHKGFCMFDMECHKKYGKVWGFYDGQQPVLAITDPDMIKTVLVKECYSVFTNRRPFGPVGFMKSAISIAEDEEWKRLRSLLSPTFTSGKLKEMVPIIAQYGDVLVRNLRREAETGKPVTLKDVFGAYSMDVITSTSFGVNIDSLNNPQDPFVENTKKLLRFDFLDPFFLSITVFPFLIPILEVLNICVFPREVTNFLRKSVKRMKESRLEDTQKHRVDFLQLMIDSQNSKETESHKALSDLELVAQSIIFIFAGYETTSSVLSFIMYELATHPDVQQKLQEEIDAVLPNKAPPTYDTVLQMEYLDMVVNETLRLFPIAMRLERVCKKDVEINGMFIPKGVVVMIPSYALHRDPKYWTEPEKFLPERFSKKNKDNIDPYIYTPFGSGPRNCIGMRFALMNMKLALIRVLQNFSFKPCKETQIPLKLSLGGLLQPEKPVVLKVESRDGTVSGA

[17] = Inhibition of cytochrome P450; format: ADME
[18] = Oral bioavailability in dog; format: ADME, organism-based, Canis lupus familiaris; conditions: in vivo
D(2) dopamine receptor [19] = biological target: T2, D(2) dopamine receptor; assay: […] to dopamine D2 receptor expressed in HEK cells by GTPgammaS binding assay; format: cell-based, HEK293
[20] = biological target: T5, Alpha-1D adrenergic receptor; assay: […] to Alpha-1D adrenoceptor expressed in HEK cells by calcium flux assay; format: cell-based, HEK293
[21] = Half life in it dosed dog; format: ADME, organism-based, Canis lupus familiaris; conditions: in vivo, inhaled or intranasal
[22] = Oral bioavailability in rat; format: ADME, organism-based; conditions: in vivo
Cavia porcellus [23] = assay: Bronchoprotective activity in histamine-induced bronchoconstriction guinea pig model at 7 ug/kg, it after 24 hrs; format: functional
[24] = biological target: T6, Voltage-gated inwardly rectifying potassium channel KCNH2; assay: Inhibition of human ERG by patch clamp assay

| Compound | Intrinsic activity [4] | EC50 [6] [µM] | IC50 [7] [µM] | clearance [8] [mL/min/kg] | IC50 (D(2) dopamine receptor [9]) [µM] | EC50 [10] [µM] | logD (physchem) | Vd [11] [L/kg] | IC50 [12] [µM] | half-life (in vivo) [h] | IC50 [13] [µM] | other results |
| --- | --- | --- | --- | --- | --- | --- | --- | --- | --- | --- | --- | --- |
| OCc1cc(C(O)CNCCCCCCOCCCCc2ccccc2)ccc1O (configuration not stated) [SALMETEROL] |  |  |  |  |  |  |  |  |  |  |  | ED80 (Cavia porcellus [1]): 1 µg/kg; Drug metabolism (Hepatocyte): 85% |
| COc1ccccc1CNCc1cccc(CCNC[C@H](O)c2ccc(O)c3[nH]c(=O)sc23)c1 [listing 1 of 2 here] | 0.9 |  |  |  |  |  |  |  |  |  |  | Intrinsic activity [2]: 0.3; Intrinsic activity (D(2) dopamine receptor [3]): 0.4; Activity (Cavia porcellus [5]): inactive |
| COc1ccccc1CNCc1cccc(CCNC[C@H](O)c2ccc(O)c3[nH]c(=O)sc23)c1.Cl |  |  |  |  |  |  |  |  |  |  |  | ED80 (Cavia porcellus [1]): 7 µg/kg |
| O=c1[nH]c2c(O)ccc([C@@H](O)CNCCc3cccc(CNCCc4ccccc4F)c3)c2s1 | 0.9 | 0.000158 | 0.0631 | 6 | 0.398 | 0.000251 | 1.1 | 8.2 | 0.126 | 16 | 0.000501 |  |
| O=c1[nH]c2c(O)ccc([C@@H](O)CNCCc3cccc(CN4CCCC4)c3)c2s1 |  | 0.000631 | 0.316 |  | 3.16 |  |  |  | 1 |  | 0.00398 | logD [14]: 0.8 |
| COCCNCc1cccc(CCNC[C@H](O)c2ccc(O)c3[nH]c(=O)sc23)c1 | 0.8 |  | 0.158 | 18 | 0.794 | 0.00316 | 0 | 28 | 0.501 | 18 | 0.0251 |  |
| C[C@@H](NCc1ccccc1-c1ccc(CCNCCc2ccc(O)c3[nH]c(=O)sc23)cc1)c1ccccc1 | 0.9 |  |  | 19 |  | 0.000251 | -0.3 | 22 |  | 15 | 0.000794 |  |
| O=c1[nH]c2c(O)ccc(CCNCCS(=O)(=O)CCCOCCc3ccccc3)c2s1 [SIBENADET] |  |  |  |  |  |  |  |  |  |  |  | IC50 [15]: > 10 µM; Drug metabolism (Hepatocyte): > 117% |
| O=c1[nH]c2c(O)ccc([C@@H](O)CNCCc3cccc(CNCCc4c(Cl)cccc4Cl)c3)c2s1 |  |  | 0.0126 |  | 0.251 |  | 3.2 |  | 0.0631 |  |  | inhibition (INH) (Cytochrome P450 2D6): Active; inhibition (INH) [16]: Active; inhibition (INH) (Cytochrome P450 3A4): Active |
| O=c1[nH]c2c(O)ccc([C@@H](O)CNCCc3cccc(CNCCc4ccccn4)c3)c2s1 | 0.9 | 0.000501 | 0.158 |  | 1.58 | 0.000316 |  | 41 | 0.2 |  | 0.00251 |  |
| COc1ccccc1CNCc1cccc(CCNC[C@H](O)c2ccc(O)c3[nH]c(=O)sc23)c1 [listing 2 of 2 here] |  |  | 0.0501 | 20 | 1 | 0.000501 | 1.1 | 22 | 0.2 | 14 |  | Activity [17]: > 10 µM; bioavailability [18]: < 2%; EC50 (D(2) dopamine receptor [19]): 0.251 µM; EC50 [20]: 0.126 µM; half-life [21]: 48 h; bioavailability [22]: < 2%; Activity (Cavia porcellus [23]): 64%; Activity [24]: > 10 µM |
| O=c1[nH]c2c(O)ccc([C@@H](O)CNCCc3ccc(CNCCc4c(Cl)cccc4Cl)cc3)c2s1 |  | 0.000316 | 0.398 |  | 1 |  | 2.3 |  | 0.0794 |  | 0.00398 | inhibition (INH) (Cytochrome P450 2D6): Active; inhibition (INH) [16]: Active; inhibition (INH) (Cytochrome P450 3A4): Active |
| O=c1[nH]c2c(O)ccc(CCNCCc3cccc(-c4cccc(CNCc5ccccc5)c4)c3)c2s1 | 0.9 |  |  | 23 |  | 0.000501 | 0.8 | 29 |  | 14 | 0.0316 |  |
| O=c1[nH]c2c(O)ccc([C@@H](O)CNCCc3ccccc3CNCCc3ccccc3F)c2s1 |  | 0.00158 | 0.002 |  | 0.794 |  | 1.6 |  | 0.2 |  | 0.0126 |  |
| COc1ccc(CNCc2cccc(CCNC[C@H](O)c3ccc(O)c4[nH]c(=O)sc34)c2)cc1 |  | 0.000794 | 0.01 |  | 0.794 |  | 0.9 |  | 0.158 |  | 0.00501 |  |
| CCc1cc2c(cc1CC)CC(NC[C@H](O)c1ccc(O)c3[nH]c(=O)ccc13)C2 [INDACATEROL] |  |  |  |  |  |  |  |  |  | 7.6 |  | IC50 [15]: […]; ED80 (Cavia porcellus [1]): 14 µg/kg; Drug metabolism (Hepatocyte): 51% |
| Cc1cccc2c(CCNCc3ccc(CCNC[C@H](O)c4ccc(O)c5[nH]c(=O)sc45)cc3)c[nH]c12 | 0.8 | 0.000251 | 0.316 | 18 | > 0.794 | 0.0002 |  | 29 | 0.1 | 18 | 0.002 |  |
| O=c1[nH]c2c(O)ccc([C@@H](O)CNCCc3cccc(CNCCc4ccccc4Cl)c3)c2s1 |  | 0.000251 | 0.158 |  | 0.631 |  | 1.6 |  | 0.0501 |  | 0.000631 |  |
